Data taken from ChEMBL document CHEMBL4732134, “Identification of N-phenyl-3-methoxy-4-pyridinones as orally bioavailable H receptor antagonists and β-amyloid aggregation inhibitors for the treatment of Alzheimer's disease” (Eur J Med Chem, 2021).

Legend:
hERG (KCNH2) = hERG (KCNH2) (Homo sapiens, UniProt Q12809); test: Inhibition of human ERG at 3 uM by patch clamp method relative to control
Histamine H1 receptor = Histamine H1 receptor (Homo sapiens, UniProt P35367); test: Antagonist activity at human histamine H1 receptor expressed in HEK293 cells preincubated for 5 mins followed by forskolin-stimulation and measured after 5 hrs by CRE-driven luciferase reporter gene assay; assay type: functional, cell-based
Chain of Histamine H1 receptor (P35367 whole entry): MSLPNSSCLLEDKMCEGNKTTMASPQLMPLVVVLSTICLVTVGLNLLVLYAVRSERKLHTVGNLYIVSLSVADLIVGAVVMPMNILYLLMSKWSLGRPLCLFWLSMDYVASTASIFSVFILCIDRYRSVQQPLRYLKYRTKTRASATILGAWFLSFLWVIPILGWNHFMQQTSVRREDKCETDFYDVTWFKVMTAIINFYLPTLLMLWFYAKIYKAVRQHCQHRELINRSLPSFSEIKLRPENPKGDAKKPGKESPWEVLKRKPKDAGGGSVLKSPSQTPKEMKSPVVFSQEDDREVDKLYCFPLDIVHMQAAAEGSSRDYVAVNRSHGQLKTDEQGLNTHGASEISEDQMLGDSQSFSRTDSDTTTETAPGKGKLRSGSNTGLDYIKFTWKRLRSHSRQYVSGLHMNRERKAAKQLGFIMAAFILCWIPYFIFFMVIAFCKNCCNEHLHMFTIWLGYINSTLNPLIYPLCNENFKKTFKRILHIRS

Histamine H2 receptor = Histamine H2 receptor (Homo sapiens, UniProt P25021); test: Antagonist activity at human histamine H2 receptor expressed in HEK293 cells preincubated for 5 mins followed by forskolin-stimulation and measured after 5 hrs by CRE-driven luciferase reporter gene assay; assay type: functional, cell-based
Chain of Histamine H2 receptor (P25021 whole entry): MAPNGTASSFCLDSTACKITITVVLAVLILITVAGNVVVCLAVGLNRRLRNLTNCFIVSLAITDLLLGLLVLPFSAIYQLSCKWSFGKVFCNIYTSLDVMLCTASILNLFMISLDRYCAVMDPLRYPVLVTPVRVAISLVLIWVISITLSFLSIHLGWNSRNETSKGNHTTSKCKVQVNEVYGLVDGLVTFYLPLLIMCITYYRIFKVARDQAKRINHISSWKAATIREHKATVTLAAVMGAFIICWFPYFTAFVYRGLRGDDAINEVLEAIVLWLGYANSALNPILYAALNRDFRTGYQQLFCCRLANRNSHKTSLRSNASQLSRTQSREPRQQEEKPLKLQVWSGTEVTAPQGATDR

Histamine H4 receptor = Histamine H4 receptor (Homo sapiens, UniProt Q9H3N8); test: Antagonist activity at human histamine H4 receptor expressed in HEK293 cells preincubated for 5 mins followed by forskolin-stimulation and measured after 5 hrs by CRE-driven luciferase reporter gene assay; assay type: functional, cell-based
Chain of Histamine H4 receptor (Q9H3N8 whole entry): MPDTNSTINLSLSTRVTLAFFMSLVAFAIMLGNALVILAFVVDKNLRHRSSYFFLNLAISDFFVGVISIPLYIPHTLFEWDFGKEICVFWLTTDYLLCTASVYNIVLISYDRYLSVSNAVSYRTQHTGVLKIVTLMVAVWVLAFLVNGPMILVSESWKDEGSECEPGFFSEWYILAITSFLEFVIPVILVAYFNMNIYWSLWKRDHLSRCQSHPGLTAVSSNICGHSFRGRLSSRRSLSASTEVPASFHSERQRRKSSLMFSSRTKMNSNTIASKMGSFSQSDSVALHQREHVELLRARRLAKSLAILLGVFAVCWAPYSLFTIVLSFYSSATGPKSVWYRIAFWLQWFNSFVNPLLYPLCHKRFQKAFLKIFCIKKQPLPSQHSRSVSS

Chain of hERG (KCNH2) (Q12809 whole entry): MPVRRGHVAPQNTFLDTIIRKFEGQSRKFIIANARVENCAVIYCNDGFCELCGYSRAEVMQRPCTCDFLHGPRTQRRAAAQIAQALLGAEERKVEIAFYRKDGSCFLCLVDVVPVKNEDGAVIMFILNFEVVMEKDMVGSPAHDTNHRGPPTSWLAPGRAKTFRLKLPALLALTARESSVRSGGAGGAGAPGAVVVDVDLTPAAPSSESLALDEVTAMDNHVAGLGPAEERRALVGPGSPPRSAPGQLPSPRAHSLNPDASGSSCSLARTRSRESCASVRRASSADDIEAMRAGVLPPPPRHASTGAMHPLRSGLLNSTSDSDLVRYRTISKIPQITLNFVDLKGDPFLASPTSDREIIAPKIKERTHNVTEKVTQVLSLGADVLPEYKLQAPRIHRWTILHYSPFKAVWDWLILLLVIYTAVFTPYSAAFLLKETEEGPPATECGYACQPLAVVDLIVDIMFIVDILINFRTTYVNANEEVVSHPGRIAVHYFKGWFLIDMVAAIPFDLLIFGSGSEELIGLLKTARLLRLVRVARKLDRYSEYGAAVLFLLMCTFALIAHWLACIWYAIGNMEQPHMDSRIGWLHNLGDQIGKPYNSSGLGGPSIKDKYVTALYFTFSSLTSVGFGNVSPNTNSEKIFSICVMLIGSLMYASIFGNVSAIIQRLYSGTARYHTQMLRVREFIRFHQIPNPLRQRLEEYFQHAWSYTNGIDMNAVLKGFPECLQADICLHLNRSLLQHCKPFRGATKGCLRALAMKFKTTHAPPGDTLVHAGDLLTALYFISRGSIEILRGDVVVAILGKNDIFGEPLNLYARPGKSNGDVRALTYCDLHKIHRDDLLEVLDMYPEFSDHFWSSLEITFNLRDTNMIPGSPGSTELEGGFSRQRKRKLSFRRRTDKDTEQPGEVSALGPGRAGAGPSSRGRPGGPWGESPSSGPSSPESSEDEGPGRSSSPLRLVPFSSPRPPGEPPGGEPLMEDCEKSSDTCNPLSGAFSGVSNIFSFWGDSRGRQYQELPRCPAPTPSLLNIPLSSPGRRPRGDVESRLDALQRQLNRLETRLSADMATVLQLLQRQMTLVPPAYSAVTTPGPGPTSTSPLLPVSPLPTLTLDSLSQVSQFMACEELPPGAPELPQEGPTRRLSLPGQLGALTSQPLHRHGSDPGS

## COc1cn(-c2ccc(OCCCN3CCCC3)cc2)ccc1=O
hERG (KCNH2)
  inhibition at 3 µM: 6.3%
Histamine H1 receptor
  IC50: > 10 µM
Histamine H2 receptor
  IC50: > 10 µM
Histamine H4 receptor
  IC50: > 10 µM
